From patent US20260240869A1, “ANTIPSEUDOMONAL FUSIDIC ACID COMPOUNDS” (priority 2022, published 2026)
≈ marks a conversion by molar mass, not a printed value. Like-named read-outs stand apart in the source and are kept apart here.

Columns and labels:
[1] = tested on: WT PA; details: retrospective literature analysis (Table 6); cited from earlier work
[2] = tested on: WT EC; details: retrospective literature analysis (Table 6); cited from earlier work
[3] = tested on: P. aeruginosa PAO1; assay: MIC, CLSI broth microdilution, P. aeruginosa PAO1; format: cell-based, Pseudomonas aeruginosa; details: for MIC: Pseudomonas aeruginosa
Method: (§1) Antimicrobial Susceptibility Tests. Susceptibility testing was performed in biological triplicate, using the microdilution broth method as outlined by the Clinical and Laboratory Standards Institute. Bacteria were cultured with cation-adjusted Meuller-Hinton broth (Sigma-Aldrich; catalogue number: 90922) or Luria-Bertani (LB) broth (Lennox) in round-bottom 96-well plates (Corning; catalogue number: 3788).

[4] = tested on: P. aeruginosa PAΔ6; assay: MIC, efflux pump knockout strain PAΔ6; format: cell-based, Pseudomonas aeruginosa; details: for Fold change (MIC): WT MIC / PAΔ6 MIC (Table 7)
Method: as §1

[5] = tested on: P. aeruginosa PAO1; assay: LC-MS/MS whole-cell accumulation assay, P. aeruginosa PAO1; format: cell-based, Pseudomonas aeruginosa; details: for PA accum.: P. aeruginosa, value ± s.e.m. (Chart 2); for WT Accum: WT PAO1, ± s.e.m. (Table 7)
Method: (§2) Accumulation Assay. The accumulation assay was performed in triplicate in batches of ten samples, with each batch containing tetracycline or ciprofloxacin as a positive control. P. aeruginosa PAO1, PAO1 A6, PA14, PA14 A40, and PA1280, and E. coli MG1655 were used in these experiments. For each replicate, 2.5 mL (E. coli) or 5 mL (P. aeruginosa) of an overnight culture was diluted into 250 mL of fresh Luria-Bertani broth (Lennox) or Tryptic Soy Broth (TSB) and grown at 37° C. with shaking to an optical density (OD600) of 0.55-0.60. The bacteria were pelleted at 3220 r.c.f. for 10 min at 4° C., and the supernatant was discarded. The pellets were resuspended in 40 mL of phosphate buffered saline (PBS) and pelleted as before, and the supernatant was discarded. The pellets were resuspended in 8.8 mL of fresh PBS and aliquoted into ten, 1.5 mL Eppendorf tubes (875 μL each). The number of colony-forming units (CFUs) was determined by a calibration curve. The samples were equilibrated at 37° C. with shaking for 5 min; compound was added (final concentration=50 μM), and then the samples were incubated at 37° C. with shaking for either 10 min. These time points were short enough to minimize metabolic and growth changes (no changes in OD600 or CFU count observed). After incubation, 800 μL of the cultures was carefully layered on 700 μL of silicone oil (9:1 AR20/Sigma High Temperature, cooled to −78° C.). Bacteria were pelleted through the oil by centrifuging at 13 000 r.c.f. for 2 min at room temperature (with the supernatant remaining above the oil); the supernatant and oil were then removed by pipetting. To lyse the samples, each pellet was dissolved in […] of water, and then, they were subjected to three (E. coli) or four (P. aeruginosa) freeze-thaw cycles of 3 min in liquid nitrogen followed by 3 min in a water bath at 65° C. P. aeruginosa samples were then treated with 50 µM DNase and RNase and incubated at 37° C. for 15 minutes. The lysates were pelleted at 13 000 r.c.f. for 2 min at room temperature, and the supernatant was collected ([…]). The debris was resuspended in 100 μL of methanol and pelleted as before. The supernatants were removed and combined with the previous supernatants collected. Finally, the remaining debris was removed by centrifuging at 20 000 r.c.f. for 10 min at room temperature. Supernatants were analyzed by LC-MS/MS.
(§3) Samples were analyzed with the 5500 QTRAP LC/MS/MS system (AB Sciex) with a 1200 series HPLC system (Agilent Technologies) including a degasser, an autosampler, and a binary pump. Liquid chromatography separation was performed on an Agilent SB-Aq column (4.6×50 mm, 5 μm) (Agilent Technologies) with mobile phase A (0.1% formic acid in water) and mobile phase B (0.1% formic acid in acetonitrile). The flow rate was 0.3 mL/min. The linear gradient was as follows: 0-3 min, 100% mobile phase A; 10-15 min, 2% mobile phase A; 15.5-21 min, 100% mobile phase A. The autosampler was set at 5° C. The injection volume was 15 μL. Mass spectra were acquired with both positive electrospray ionization at the ion spray voltage of 5500 V and negative electrospray ionization at the ion spray voltage of −4500 V. The source temperature was 450° C. The curtain gas, ion source gas 1, and ion source gas 2 were 33, 50, and 65, respectively. Multiple reaction monitoring was used to quantify the metabolites. Power analysis was not used to determine the number of replicates. Error bars represent the standard error of the mean of three biological replicates. The statistical significance of the accumulation was determined using a two sample Welch's t test (one-tailed test, assuming unequal variance) relative to the negative controls. All compounds evaluated in the biological assays were >95% pure.
MBN assay. Assays measuring permeabilization by polymyxin B nonapeptide (PMBN) were performed as above, with the addition of 8 μg/mL PMBN immediately before the compound of interest was added.

[6] = tested on: P. aeruginosa PAΔ6; assay: LC-MS/MS whole-cell accumulation assay, PAΔ6; format: cell-based, Pseudomonas aeruginosa; details: for Fold change (Accum): PAΔ6 Accum / WT Accum (Table 7); for PAΔ6 Accum: ± s.e.m. (Table 7)
Method: as §2, §3

[7] = tested on: E. coli MG1655; assay: LC-MS/MS whole-cell accumulation assay, E. coli MG1655; format: cell-based; details: for EC accum.: E. coli, value ± s.e.m. (Chart 2); for EC Accumulation (FA): E. coli MG1655, accumulation of FA reported (Table 8)
Method: as §2, §3

[8] = tested on: tolC EC; details: retrospective literature analysis (Table 6); cited from earlier work
[9] = tested on: E. coli MG1655; assay: MIC, E. coli MG1655; format: cell-based; details: Escherichia coli, MG1655; CLSI (Table 8); read-out: E. coli MG1655 MIC
Method: as §1

[10] = WT P. aeruginosa PAO1, MH or LB broth (Table 7), read-out: WT MIC
[11] = PAO1, CLSI (Table 8), read-out: P. aeruginosa PAO1 MIC

For CCNc1cc(F)cc2c1[nH]c1ncc(-c3cnc(OC)nc3)c(-n3cc(CN)c(C(F)(F)F)n3)c12 [Compound 17r], the “WT PA MIC” value [1] is given as 1.3 µg/mL and the “WT EC MIC” value [2] is given as 0.31 µg/mL.
For C=C[C@]1(C)C[C@@H](OC(=O)CSC(C)(C)CNC(=O)[C@H](N)C(C)C)[C@]2(C)[C@H](C)CC[C@]3(CCC(=O)[C@H]32)[C@@H](C)[C@@H]1O [Valnemulin], the MIC ([3]; PAO1, read-out: PAO1 MIC) was 256 µg/mL (≈ 453 µM), the MIC ([3]; PAO1, read-out: WT MIC) was 256 µg/mL (≈ 453 µM) and the “PAO1 + PMBN MIC” value ([3]; co-treatment of 8 μg/mL of PMBN, MH broth) was 1 µg/mL. The Fold change ([4]; MIC ratio WT PAO1 / PAΔ6 (Table 2)) was 2048, the “PAΔ6 MIC” value ([4]; efflux pump KO strain, MH or LB broth (Table 2)) was 0.125 µg/mL and the “change of accumulation upon membrane permeabilization” value ([5]; treatment with PMBN, FIG. 1b) was “significant increase in accumulation”. The “change of accumulation in efflux pump knockout PAΔ6 versus WT PAO1” value ([6]; FIG. 1c) was “increase in accumulation”.
Cn1cc(C2=C(c3c4n(c5ccccc35)CC[C@H](CN)C4)C(=O)NC2=O)c2ccccc21 [Compound 55] gave a PA accum. [5] of 1193 ± 27 nmol/10^12 CFUs and an EC accum. [7] of 17 ± 7 nmol/10^12 CFUs.
In the case of Cc1ccc2c(C)c3c(c(O)c2c1O)C(=O)[C@]1(O)C(=O)C(C(N)=O)=C(O)[C@H](N)[C@@H]1C3 [CDCHD], the “WT PA MIC” value [1] is given as 1 µg/mL and the “tolC EC MIC” value [8] is given as 0.25 µg/mL.
Work on NCCCCCCNS(=O)(=O)c1cccc2ccccc12 [Compound 54] yielded a PA accum. [5] of 399 ± 63 nmol/10^12 CFUs and an EC accum. [7] of 108 ± 17 nmol/10^12 CFUs.
For Cc1cc(NS(=O)(=O)c2ccc(N)cc2)no1 [Sulfamethoxazole], the MIC [3, 10] was greater than 64 µg/mL, the “PAΔ6 MIC” value ([4]; MH or LB broth (Table 7)) was 4 µg/mL and the “Fold change (MIC)” value [4] was greater than 16. For the same molecule, the “WT Accum” value [5] was 101 ± 26 nmol/10^12 CFUs, the “Fold change (Accum)” value [6] was 4.2 and the “PAΔ6 Accum” value [6] was 420 ± 15 nmol/10^12 CFUs.
With CC(=O)O[C@H]1C[C@@]2(C)[C@@H](C[C@@H](O)[C@H]3[C@@]4(C)CC[C@@H](O)[C@@H](C)[C@@H]4CC[C@@]32C)/C1=C(\CCC=C(C)C)C(=O)NCCCNCCCNCCCN [FA polyamine] the “antibacterial activity (in words)” value ([3]; Chart 6, strain not given) was “no longer has potent antibacterial activity” and the “increase in accumulation relative to FA” value ([5]; text b129) was 30 -fold.
In the case of CC(=O)O[C@H]1C[C@@]2(C)[C@@H](C[C@@H](O)[C@H]3[C@@]4(C)CC[C@@H](O)[C@@H](C)[C@@H]4CC[C@@]32C)/C1=C(\CCC=C(C)C)C(=O)O/N=C(\N)CN [FA prodrug 1], the MIC [3, 11] is reported as greater than 256 µg/mL, the MIC [9] is reported as greater than 256 µg/mL and the “EC Accumulation (FA)” value [7] is reported as 850 ± 61 nmol/1012 CFUs.
With N[C@H]1CO[C@H]2[C@@H]1OC[C@H]2OS(=O)(=O)c1ccc(-c2ccccc2)cc1 [Compound 48] the PA accum. [5] was 282 ± 37 nmol/10^12 CFUs and the EC accum. [7] was 1965 ± 291 nmol/10^12 CFUs.
In the case of N#Cc1ccc(-c2cncc3c2CCCC3N)cc1 (stereo not drawn) [Compound 52], the PA accum. [5] is reported as 161 ± 12 nmol/10^12 CFUs and the EC accum. [7] is reported as 929 ± 39 nmol/10^12 CFUs.
In the case of CC(=O)O[C@H]1C[C@@]2(C)[C@@H](C[C@@H](O)[C@H]3[C@@]4(C)CC[C@@H](O)[C@@H](C)[C@@H]4CC[C@@]32C)/C1=C(\CCC=C(C)C)C(=O)O/N=C(\N)CNCCCNCCCN [FA prodrug 3], the MIC [3, 11] is reported as 128 µg/mL (≈ 182 µM), the MIC [9] is reported as 32 µg/mL (≈ 45.6 µM) and the “EC Accumulation (FA)” value [7] is reported as 1764 ± 37 nmol/1012 CFUs.
For COc1cc(Cc2cnc(N)nc2N)cc(OC)c1OC [Trimethoprim], the MIC [3, 10] was greater than 512 µg/mL, the “PAΔ6 MIC” value ([4]; MH or LB broth (Table 7)) was 2 µg/mL and the “Fold change (MIC)” value [4] was greater than 256. For the same molecule, the “WT Accum” value [5] was 136 ± 11 nmol/10^12 CFUs, the “Fold change (Accum)” value [6] was 2.6 and the “PAΔ6 Accum” value [6] was 356 ± 28 nmol/10^12 CFUs.
